Test results: patent publication US20240290133A1, “HERBAL COMPOSITION FOR BREAST CANCER PREVENTION” (priority 2021, published 2024)
Several values for one entry are separate records, joined by “and”; a condition that tells them apart may be missing. Identical values can stand only once.

Test system: MCF-7 breast cancer cells
Experiment: MCF-7 cell viability (PrestoBlue Cell Viability Reagent, fluorescence)
Type: cell-based, human
Conditions: individual ingredients, 2 mg/0.2 ml, 24 h, single replicate wells (Table 3)
Protocol: In order to assess this activity, a well-established line of breast cancer cells used in cancer research was selected. MCF-7 is a widely studied cancer cell line derived from breast adenocarcinoma, it was proven to be a suitable model cell line for breast cancer investigations worldwide, including those regarding anticancer drugs.
The cells were cultured with growth medium and seeded in two 96 well plates incubated at 37 Celsius. The HCBCP solution was prepared by dissolving the powder in DPBS as per Table 1, below.
The obtained solutions were sterilized by 0.22-micron filtration.
An amount of 0.2 ml was applied in each test tube providing 2 mg of HCBCP. […]
After incubation period of 24 and 48 hours, cell viability was measured using PrestoBlue™ Cell Viability Reagent, according to manufacturer instructions.
Fluorescence was detected at excitation wavelength of 560 nm and an emission of 590 nm, using TECAN SPARK 10M microplate reader, at 24 and 48 hours after application. The fluorescence data is expressed as percentage of cell viability (%) compared to vehicle control.
Percentage of cell viability was calculated using the following formula: [(fluorescence of treated cells−mean background fluorescence)/(fluorescence of cells with vehicle control−mean background fluorescence)]×100, at 24 and 48 hours after application. […]

## O=c1c(O)c(-c2ccc(O)c(O)c2)oc2cc(O)cc(O)c12 [BF 2 Q, Quercetin]
  FU-background: 16881.00 FU and 16665.00 FU and 15291.00 FU and 14944.00 FU
  Fluorescence units (FU): 22892 FU and 22876 FU and 21302 FU
